# Tests used:
# HT-29 cells = test: Cell proliferation over 5 days (CellTiter Glow); format: cell-based, human; conditions: KRAS WT cells
# Experimental: (§1) Transfection protocol. The following protocols are reported for 24/48/96 well plate format transfection. Cells should be trypsinized and seeded a day prior transfection Cells were cultured in Dulbecco's Modified Eagle's Medium (DMEM), supplemented with 2 mM glutamine, 1% antibiotics (streptomycin 10,000 μg/mL, penicillin, 10,000 IU/mL) and 10% (w/v) foetal calf serum (FCS), at 37° C. in a humidified atmosphere containing 5% CO2. 96 well plates seeded with 50,000 cells, the day prior transfection, grown to 60-80% confluence and set up to be at around 70% confluence at the day of transfection. Before transfection, cells are washed twice with DMEM (without FBS and pen/strep) (100 μl/well). Cells were then overlaid with 25 μl of complex solution, mixed gently and incubated for 10 min at 37° C.+5% CO2. 50 μl of fresh DMEM (without FBS and Antibiotics) was added and cells were incubated for 2 h at 37° C.+5% CO2 (time of exposure can be adjusted based on sensitivity of the cells). 250 μL of DMEM (containing 10% FCS and 1% antibiotics) were then added without removing the overlay of ADGN peptide/mRNA complexes. Cells were returned to the incubator (37° C., 5% CO2) and analyzed 48 hours to 72 hours post transfection.
# (§2) Nine different gRNAs targeting KRAS 35G>T mutant G12V (gRNA35T1, gRNA35T2, gRNA35T3, gRNA35T4, gRNA35T5, gRNA35T6, gRNA35T7, gRNA35T8 and gRNA35T9 (see FIG. 18)) were evaluated on SW403 and SW480 cancer cells harboring G12V KRAS mutation. Cas9 mRNA (0.15 μg) and gRNA (0.2 μg) were associated with ADGN-peptides as reported in experimental procedure. SW403, SW480 and HT-29 cells were cultured in 48 well plate format and treated with free mRNACas9-gRNA, or ADGN-100/mRNACas9:gRNA complex. Indel frequencies at the endogenous target sequences was evaluated 72 hours after transfection by either T7E1 method and by deep sequencing. Cell proliferation was analyzed over a period of 5 days using CellTiter Glow kits on GlowMax (Promega).
# KRAS 35G>T mutant G12V = test: Indel frequencies at the endogenous target sequences (T7E1 / deep sequencing) after ADGN/Cas9 mRNA/gRNA transfection; format: cell-based, human; conditions: for indel frequencies: deep sequencing, 72 hours after transfection, Cas9 mRNA 0.15 μg, gRNA 0.2 μg, ADGN-100
# Experimental: (§3) Complex formation with mRNA:gRNA: ADGN peptide/mRNA/gRNA particles were prepared at a 20:1:1 molar ratio. ADGN/Cas9mRNA/sgRNA complexes were prepared at a 20/1/1 molar ratio with 0.5 μg mRNA: 1.5 μg sgRNA and 5% Glucose or DMEM (example for 96 well plates). […] Premixed Cas9 mRNA/gRNA were prepared in sterile water at room temperature in a glass vial (1-4 ml). ADGN-peptide solution was added dropwise (1 drop/sec) under magnetic agitation at 400 rpm to obtain a 1:2 ratio, and incubated for 30 min at room temperature or 37° C. Just before transfection, 150 μl Glucose or DMEM was added and the solution was mixed under magnetic agitation at 400 rpm for 1 minute. Then the solution was incubated for 5 min at 37° C. Then the complexes was ready for cell transfection or IV administration. Prior to IV administration, complexes were diluted in sucrose 5% solution.
# as §1, §2
# (§4) In order to confirm the specificity of sgRNAs targeting G12V, G12C or G12D KRAS mutation, gRNA35T3 targeting G12V, gRNA34T6 targeting G12C, and gRNA35A5 targeting G12D were evaluated on a large panel of cancer cells harboring different KRAS mutations including SW403, SW480, PANC1, PK-45H, PK-1, MIA-PACA, H23, H358, HT-29, HS-68 and LS513. Cas9 mRNA (0.2 μg) and gRNA (0.4 μg) were associated with ADGN peptide at molar ratio 20/1 (peptide/nucleic acid). Cells were cultured in 48 well plate format and treated with free mRNACas9-gRNA, or ADGN/mRNACas9:gRNA complex. Indel frequencies at the endogenous target sequences was evaluated 72 hours after transfection by either T7E1 method and cell proliferation was analyzed over a period of 5 days using CellTiter Glow kits on GlowMax (Promega).
# wild type KRAS = test: as above; format: cell-based, human; conditions: HT29 cells
# Experimental: as §3, §1, §2
# Nine different gRNAs targeting KRAS 35G>A mutant G12D (gRNA35A1, gRNA35A2, gRNA35A3, gRNA35A4, gRNA35A5, gRNA35A6; gRNA35A7, gRNA35A8, gRNA35A9) were evaluated on LS513, Panc1, PK-45H, and PK1 cancer cells harboring G12D KRAS mutation. Cas9 mRNA (0.1 μg) and gRNA (0.2 μg) were associated with ADGN-peptide at molar ratio 20/1 (peptide/nucleic acid). LS513, Panc1, PK-45H, PK1, HS-68 and HT-29 cells were cultured in 48 well plate format and treated with free mRNACas9-gRNA, or ADGN/mRNACas9:gRNA complex. Indel frequencies at the endogenous target sequences was evaluated 72 hours after transfection by either T7E1 method or deep sequencing. Cell proliferation was analyzed over a period of 5 days using CellTiter Glow kits on GlowMax (Promega).
# SW403 and SW480 cells = test: Cell proliferation over 5 days (CellTiter Glow); format: cell-based, human
# Experimental: as §1, §2
# [1] = system: phospho-p44/42 MAPK (Erk1/2) (Thr202/Tyr204); test: Western blot of KRAS downstream signaling 48 h post transfection; format: cell-based, human; conditions: SW403 cells
# Experimental: (§5) In order to verify the specific effect of your lead sgRNA targeting G12V and G12D KRAS mutation, gRNA35A5 G12D and gRNA35T3 G12V on KRAS signal transduction pathway in PANC-1 and SW403 cells, we measured the levels of downstream signaling proteins that are activated by KRAS. We specifically looked for changes in key signaling pathways, such as mitogen-activated protein kinase (MAPK) or PI3K/Akt, which are known to be the major effector pathways of KRAS activation. Cas9 mRNA (0.2 μg) and gRNA (0.2 μg or 0.5 μg) were associated with ADGN peptide at molar ratio 20/1 (peptide/nucleic acid). PANC1 and SW403 cells were cultured in 48 well plate format and treated with free mRNACas9-gRNA, or ADGN/mRNACas9:gRNA complex. Levels of Erk and Akt phosphorylation were measured 48 h post transfection by western blot using phospho-Akt (Ser 473) (CST, #9271, RRID:AB_329825) and phospho-p44/42 MAPK (Erk1/2) (Thr202/Tyr204) (CST, #4370, RRID:AB_2315112).
# phospho-Akt (Ser 473) = test: as above; format: cell-based, human; conditions: SW403 cells
# Experimental: as §5
# [2] = system: G12V, G12D, G12C KRAS mutant cells and WT KRAS cells; test: Specificity of lead sgRNAs on a large panel of cancer cells harboring different KRAS mutations (indel, proliferation); format: cell-based, human; conditions: Cas9 mRNA 0.2 μg, gRNA 0.4 μg
# Experimental: as §4
# pERK = test: Downstream signaling proteins quantified by ELISA on tumors; format: in vivo, mice; conditions: SW403 tumors
# Experimental: The specificity of gRNA35A5 G12D and gRNA35T3 G12V for their targets in PANC-1 and SW403 tumors cells, have been analyzed. Female nude mice 6-weeks of age were injected with either Human pancreatic carcinoma cell (Panc1-Luc) containing the 35G>A mutation or Human colorectal cancer cells (SW403) containing 35G>T KRAS mutation (20×10^6 cells in 200 μl PBS). A period of 2 weeks was allowed for tumor development before the beginning of the experiments.
# Animal were injected on day 1 and day 7. Mice received IV injection of 100 μl ADGN/mRNA complex in 5% glucose. At Day 50, animals were sacrificed and tissues/tumors were harvested. At Day 50 post treatment, level of expression of housekeeping genes; glyceraldehyde-3-phosphate dehydrogenase (GAPDH), HPRT-1 and mitochondrial ATP synthase 6 (mATPsy6) was evaluated by PCR in the tumor, liver, spleen and lung.
# We analyzed the level of KRAS G12D or KRAS G12V gene editing by deep sequencing in PANC1 (FIG. 14A) and SW403 (FIG. 14B) tumors, respectively. […] The level of downstream signaling proteins (pAKT and pERK) were quantified by ELISA on PANC1 and SW403 tumors. […] Given that targeting KRAS using Cas9/sgRNA can induce various secondary mutations at or near the target sites, deep sequencing shown similar level of secondary oncogenic mutations (G12D, G12V, G12C, G13D, G12R, G12A, and G12S) in KRAS-mutant cancer cells (SW403/PANC-1) or cells containing wild-type KRAS (HT29) either in vitro or in vivo.
# KRAS 34G>T mutant G12C = test: Indel frequencies at the endogenous target sequences (T7E1 / deep sequencing) after ADGN/Cas9 mRNA/gRNA transfection; format: cell-based, human; conditions: for indel frequencies: deep sequencing, 72 hours after transfection, Cas9 mRNA 0.1 μg, gRNA 0.2 μg
# Experimental: as §3, §1
# (§6) Eight different gRNAs targeting KRAS 34G>T mutant G12C (gRNA34T1, gRNA34T2, gRNA34T3, gRNA34T4, gRNA34T5, gRNA34T6, gRNA34T7 and gRNA34T8) were evaluated on MIA-PACA, H23, H358, H29 and PANC1 cells. Cas9 mRNA (0.1 μg) and gRNA (0.2 μg) were associated with ADGN peptide at molar ratio 20/1 (peptide/nucleic acid). MIA-PACA, H23, H358, PANC1 and HT29 cells were cultured in 48 well plate format and treated with free mRNACas9-gRNA, or ADGN/mRNACas9:gRNA complex. Indel frequencies at the endogenous target sequences was evaluated 72 hours after transfection by either T7E1 method or deep sequencing. Cell proliferation was analyzed over a period of 5 days using CellTiter Glow kits on GlowMax (Promega).
# as §4
# [3] = system: Mia-PACA, H23 and H358 cells; test: Cell proliferation over 5 days (CellTiter Glow); format: cell-based, human
# Experimental: as §1, §6
# [4] = SW403 cells (heterozygous 35G>T)
sequence,measurement,setting,value
"AGC TGT TGG CGT AGG CAA (guide AGCTGTTGGCGTAGGCAA; chemistry not given here) [gRNA35T4, sgRNA target KRAS G12V mutation (c.35G>T); PAM GAG]",HT-29 proliferation,HT-29 cells,altered also HT-29 proliferation
same,indel frequencies,KRAS 35G>T mutant G12V; [4],22%
same,indel frequencies,KRAS 35G>T mutant G12V; SW480 cells (homozygous 35G>T),41%
same,disruption of WT KRAS,wild type KRAS,also induced disruption of WT KRAS in HT29 cells
"GGTAGTTGGAGCTGTTGGCG (guide GGTAGTTGGAGCTGTTGGCG; chemistry not given here) [gRNA35T3, sgRNA target KRAS G12V mutation (c.35G>T); PAM TAG]",fold more efficient than gRNA35T6 (cell proliferation),SW403 and SW480 cells; SW403 and SW480 cells,2 fold
same,fold more efficient than gRNA35T8 (cell proliferation),SW403 and SW480 cells; SW403 and SW480 cells,1.5 fold
same,cell proliferation blocked,"SW403 and SW480 cells; SW403 and SW480 cells, 5 days",75%
same,inhibition of proliferation or survival (FIG. 1B),SW403 and SW480 cells; SW480 and SW403 cells vs HT29 cells harboring KRAS WT,specifically inhibit proliferation or survival of SW480 and SW403 cells
same,indel frequency,KRAS 35G>T mutant G12V; KRAS G12V mutated cancer cells,> 70%
same,indel editing and disruption of G12V mutant KRAS (FIG. 1A),"KRAS 35G>T mutant G12V; SW403, SW480 vs wild type KRAS HT29 cells, T7E1",specifically induced indel editing and efficient disruption
same,indel frequency,"KRAS 35G>T mutant G12V; SW403 and SW480 cells, T7E1, 72 hours, Cas9 mRNA 0.2 μg, gRNA 0.4 μg",> 65%
same,indel frequencies,KRAS 35G>T mutant G12V; [4],65%
same,indel frequencies,KRAS 35G>T mutant G12V; SW480 cells (homozygous 35G>T),81%
same,level of p-Erk,[1],significantly affected
same,Akt phosphorylation,phospho-Akt (Ser 473),poorly
same,effect on non-targeted KRAS mutant cells and WT KRAS cells (FIGS. 4A-4B),[2],does not alter G12D and G12C KRAS mutant cells or WT KRAS cells
same,level of p-ERK,pERK,significantly affected
"GTAGTTGGAGCTTGTGGCGT (guide GTAGTTGGAGCTTGTGGCGT; sgRNA, chemical modifications not given here, further chemistry not given here) [gRNA34T6, sgRNA target KRAS G12C mutation (34G>T); PAM AGG]",indel frequencies,KRAS 34G>T mutant G12C; H23 cells,78%
same,indel frequencies,KRAS 34G>T mutant G12C; H358 cells,67%
same,indel frequency,KRAS 34G>T mutant G12C; KRAS G12C mutated cancer cells,> 70%
same,indel frequencies,KRAS 34G>T mutant G12C; Mia-PACA cells,71%
same,indel editing and disruption of G12C mutant KRAS (FIG. 3A),"KRAS 34G>T mutant G12C; Mia-PACA, H23, H358 vs HT29 and PANC1 cells",induced indel editing and efficient disruption of G12C mutant KRAS
same,indel frequency,"KRAS 34G>T mutant G12C; Mia-PACA, H23 and H358 cells, T7E1, 72 hours, Cas9 mRNA 0.2 μg, gRNA 0.4 μg",> 70%
same,fold more efficient than gRNA34T3 (cell proliferation),[3],3 fold
same,fold more efficient than gRNA34T5 (cell proliferation),[3],2 fold
same,inhibition of proliferation or survival (FIG. 3B),"[3]; Mia-PACA, H23, H358 vs KRAS WT HT29 or HS-68 and PANC1 cells","specifically inhibit proliferation or survival of Mia-PACA, H23 and H358 cells"
same,cell proliferation blocked,"[3]; Mia-PACA, H23 and H358 cells, 5 days",75%
same,effect on non-targeted KRAS mutant cells and WT KRAS cells (FIGS. 4A-4B),[2],does not alter G12D and G12V KRAS mutant cells or WT KRAS cells
